Here are results for seven compounds from ChEMBL document CHEMBL1201862, “PubChem BioAssay data set” (2004).

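Step 1: Grow cells in 96-well plates. Step 2: Expose to compound for 48 hours at 5 concentrations. Step 3: Interpolate endpoints linearly; if unreached, use highest concentration. GI50: concentration for 50% inhibition of growth.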 Activity calls are given as the source filed them. Rule as the data show it: active = GI50 up to about 1.1 µM and inactive = higher.

Test systems include 786-0; A498; CAKI-1; DU-145; HCT-116; HL-60; HOP-62; HT-29; IGROV-1; MCF7; MDA-N; NCI-H460; NCI-H522; RPMI-8226; RXF 393; SK-MEL-5; SNB-75; SR; TK-10; UACC-62.
Common to all, as to assay: NCI tumour cell line growth inhibition, 48 h

With `COc1ccc(C2C(C)C(=O)C(C)C(c3ccc(OC)cc3)N2N=O)cc1` (stereo not given), the GI50 is 84.3 µM (inactive) in the assay with 786-0; 203 µM (inactive) in the assay on A498; 246 µM (inactive) with CAKI-1; 213 µM (inactive) in the assay with DU-145; 127 µM (inactive) with HCT-116; > 1000 µM (inactive) in the assay with HL-60. The GI50 was 87.1 µM (inactive) in the assay on HOP-62; > 738 µM (inactive) with HT-29; 165 µM (inactive) in the assay with IGROV-1; 372 µM (inactive) in the assay on MCF7; 163 µM (inactive) in the assay with MDA-N; > 659 µM (inactive) in the assay on NCI-H460. The GI50 in the assay on NCI-H522 was > 427 µM (inactive); with RPMI-8226, > 1000 µM (inactive); in the assay on RXF 393, 40.3 µM (inactive); in the assay with SK-MEL-5, > 575 µM (inactive); with SNB-75, 26.5 µM (inactive); in the assay with SR, > 685 µM (inactive). Besides, the figures for the GI50 in the assay with TK-10 and with UACC-62 were 90.6 µM (inactive) and > 506 µM (inactive), respectively.
As for `C=C(C)C12CC3CC/C(=N/O)C(C1)C3(N1CCOCC1)C/C2=N/O` (stereo not given), the GI50 with 786-0, in the assay with A498, with CAKI-1, in the assay on DU-145, in the assay on HCT-116 and with HL-60 was > 100 µM (inactive) in each case. Also, the GI50 with HOP-62, in the assay on HT-29, in the assay with IGROV-1, with MCF7, in the assay with MDA-N and in the assay with NCI-H460 was > 100 µM (inactive) throughout. Further, the GI50 with NCI-H522, with RPMI-8226, with RXF 393, with SK-MEL-5, in the assay with SNB-75 and with SR was > 100 µM (inactive) each time. The GI50 in the assay on TK-10 and in the assay on UACC-62 was > 100 µM (inactive) throughout.
Turning to `CCOC(=O)Nc1ccc(C)c(NC(=O)OCC)c1`, the GI50 in the assay on 786-0, in the assay with A498, in the assay with CAKI-1, in the assay with DU-145, with HCT-116 and with HL-60 was > 100 µM (inactive) throughout. For the same compound, the GI50 in the assay on HOP-62 was > 100 µM (inactive); with HT-29 it was > 100 µM (inactive); in the assay with IGROV-1, 55.6 µM (inactive); in the assay on MCF7, > 100 µM (inactive); in the assay with MDA-N it was > 100 µM (inactive); with NCI-H460, > 100 µM (inactive). Also, the GI50 in the assay with NCI-H522, in the assay on RPMI-8226, in the assay with RXF 393, with SK-MEL-5, with SNB-75 and in the assay with SR was > 100 µM (inactive) each time. Also, the GI50 with TK-10 and with UACC-62 was > 100 µM (inactive) in each case.
For `Nc1c(O)c(C(=O)O)cc2ccccc12`, the GI50 was 19.6 µM (inactive) in the assay with 786-0; > 100 µM (inactive) in the assay on A498; 22.6 µM (inactive) in the assay on CAKI-1; 17.9 µM (inactive) with DU-145; 17.5 µM (inactive) in the assay on HCT-116; 32.7 µM (inactive) in the assay on HL-60. The GI50 is > 100 µM (inactive) in the assay with HOP-62; 17 µM (inactive) in the assay with HT-29; > 100 µM (inactive) with IGROV-1; 11.6 µM (inactive) in the assay on MCF7; 17.9 µM (inactive) with MDA-N; 39.6 µM (inactive) in the assay on NCI-H460. Further, the GI50 in the assay with NCI-H522 is 17.7 µM (inactive); with RPMI-8226 it was 33.3 µM (inactive); in the assay with RXF 393 it was > 100 µM (inactive); with SK-MEL-5, 14.7 µM (inactive); in the assay with SNB-75, 24.3 µM (inactive); in the assay with SR it was 39.4 µM (inactive). Moreover, the GI50 with TK-10 is 98.4 µM (inactive); in the assay on UACC-62, 17 µM (inactive).
Turning to `Cc1c2cc[n+](C)c(C)c2cc2c1[nH]c1ccccc12`, the GI50 is 0.646 µM (active) with 786-0; 70.5 µM (inactive) in the assay on A498; 31.3 µM (inactive) in the assay on CAKI-1; 10.7 µM (inactive) in the assay on DU-145; 16.1 µM (inactive) in the assay with HCT-116; 16.9 µM (inactive) in the assay on HL-60. Besides, the GI50 is 3.16 µM (inactive) with HOP-62; 10.6 µM (inactive) in the assay with HT-29; 7.98 µM (inactive) in the assay with IGROV-1; 5.74 µM (inactive) in the assay on MCF7; 27.5 µM (inactive) with MDA-N; 3.37 µM (inactive) in the assay on NCI-H460. The GI50 in the assay on NCI-H522 is 2.86 µM (inactive); in the assay with RPMI-8226 it was 6.07 µM (inactive); in the assay with RXF 393, 38.7 µM (inactive); in the assay with SK-MEL-5, 2.44 µM (inactive); in the assay with SNB-75, 1.19 µM (inactive); in the assay with SR, > 26.6 µM (inactive). The GI50 in the assay on TK-10 is > 89.3 µM (inactive); with UACC-62, 11.3 µM (inactive).
For `CCOC(=O)C1=C(C)C2C=C(c3cccs3)CC(c3ccc(Cl)cc3)=C2OC1=O` (stereo not given), the GI50 in the assay with 786-0 is 20.6 µM (inactive); with A498, 83.2 µM (inactive); in the assay with CAKI-1, 57.8 µM (inactive); in the assay with DU-145, 29.9 µM (inactive); with HCT-116, 7.43 µM (inactive); in the assay on HL-60, 4.69 µM (inactive). The GI50 with HOP-62 was 86.1 µM (inactive); with HT-29, 30 µM (inactive); with IGROV-1, 26.3 µM (inactive); in the assay with MCF7 it was 14.1 µM (inactive); with MDA-N it was 37.9 µM (inactive); in the assay with NCI-H460 it was 64.4 µM (inactive). The GI50 with NCI-H522 was 19.2 µM (inactive); in the assay with RPMI-8226, 7.59 µM (inactive); with RXF 393 it was 84.5 µM (inactive); with SK-MEL-5, 27 µM (inactive); in the assay with SNB-75 it was 50.8 µM (inactive); in the assay with SR, 15.5 µM (inactive). In addition, the GI50 in the assay on TK-10 was 31.7 µM (inactive); in the assay on UACC-62, 45.8 µM (inactive).
In the case of `CN1CCCCC1CCN1c2ccccc2Sc2ccc([S+](C)[O-])cc21` (stereo not given) [MESORIDAZINE], the GI50 with 786-0, with A498, with CAKI-1, in the assay on DU-145, in the assay on HCT-116 and in the assay on HL-60 was > 100 µM (inactive) throughout. Further, the GI50 in the assay with HOP-62, in the assay with HT-29, in the assay with IGROV-1, with MCF7, in the assay on MDA-N and with NCI-H460 was > 100 µM (inactive) throughout. The GI50 with NCI-H522, in the assay with RPMI-8226, in the assay with RXF 393, with SK-MEL-5, with SNB-75 and in the assay with SR was > 100 µM (inactive) in each case. Besides, the GI50 in the assay on TK-10 and with UACC-62 was > 100 µM (inactive) in each case.
